Values joined by “and” are separate entries in the source; they are usually repeats but may differ in a detail not shown here. Identical values can stand only once.
Columns and labels:
Nrf2 = experiment: Western blot analysis of Nrf2 in cytoplasmic and nuclear fraction; type: cell-based, human; conditions: HCT116 cells, 1 h; 34 at 50 µM, 40 at 5 µM, hydrogen peroxide 4 mM
Method: Cell line HCT116 was seeded in 60 mm cell culture dishes (TPP, Switzerland) in a concentration of 9 × 10^5 cells/dish. Next day, the cells were treated with 4 mM hydrogen peroxide as a positive control for ROS induction and with compounds 34 and 40 (50 µM and 5 µM, respectively) for 1 h. Nuclear extracts from the cells were prepared using nuclear extraction buffer kit (Abcam, Cambridge, UK, ab113474) according to the manufacturer instructions. BCA assay (Sigma Aldrich, Taufkirchen, Germany) was performed for the determination of the protein concentration in nuclear and cytoplasm fractions. Denaturation of 1 μg of total proteins in Laemmli SDS loading buffer was performed at 95 °C for 5 min. After loading, 10% SDS poly-acrylamide gel electrophoresis was carried out and then proteins were transferred to nitrocellulose membranes. Afterwards, the membranes were blocked in blocking buffer (ImmobilonBlock – CH (Chemiluminescent Blocker), MerckKGaA, Darmstadt, Germany) and incubated 5 h at room temperature with primary antibody dissolved in ImmobilonBlock – CH (Chemiluminescent Blocker). After the membranes were washed three times for five minutes each with Tris-buffered saline with 0.5% Tween 20 (TBST), they were incubated in the corresponding secondary antibody for 1 h at room temperature or overnight at 4 °C. After washing with TBST, the membranes were processed for enhanced chemiluminescence (ECL) Clarity Max Western ECL Substrate (Bio-Rad Laboratories, Hercules, CA, USA) and captured using Odyssey Fc (LICOR, Bad Homburg, Germany). The primary antibody used was anti-Nrf2, (dilution 1:500, Anti-Nrf2 antibody: ab133347, Abcam), Histon H3 (dilution 1:2000, Anti-H3 antibody: Ab1791, Abcam), β-actin (dilution 1:500, sc-47778, Santa Cruz Biotechnology) and corresponding secondary HRP-conjugated IgG antibody (dilution 1:2000, mouse IgGκ, Santa Cruz Biotechnology).
Figure 5. Nrf2 protein levels in the cytoplasmic and the nuclear fraction of HCT116 cells, assessed by Western blot analysis. […]

HCT116 (colon carcinoma) = experiment: Antiproliferative activity in vitro, MTT, 72 h; type: cell-based; conditions: Homo sapiens, HCT-116, 72 h, concentration that causes 50% growth inhibition
Method: (§1) The experiments were performed on four human cell lines, including HCT 116 (colon carcinoma), H 460 (lung carcinoma), MCF-7 (breast carcinoma) and HEK 293 (human embryonic kidney cells), in line with previously published experimental procedures[10]^,[25]. Briefly, the cells were grown in DMEM medium with the addition of 10% foetal bovine serum (FBS), 2 mM L-glutamine, 100 U/mL penicillin and 100 µg/mL streptomycin, and cultured as monolayers at 37 °C in a humidified atmosphere with 5% CO2. Cells were seeded at 2 × 10^3 cells/well in a standard 96-well microtiter plates and left to attach for 24 h. Next day, a test compound was added in five serial 10-fold dilutions. The rate of cell growth was evaluated after 72 h of incubation with MTT reagent. The obtained results are expressed as IC50 values, calculated from the concentration-response curves using linear regression analysis by fitting the test concentrations that give PG values above and below the reference value (i.e. 50%). Each test was performed in quadruplicate in at least two individual experiments.

MCF-7 (breast carcinoma) = experiment: Antiproliferative activity in vitro, MTT, 72 h; type: cell-based; conditions: Homo sapiens, MCF7, concentration that causes 50% growth inhibition
Method: as §1

[1] = Ferric reducing/antioxidant power (FRAP assay); type: biochemical; conditions: triplicate; – = not active in the FRAP assay
Method: The FRAP method was carried out according to previously described procedures with some modifications to be compatible with an assay on a 96-well microplate. All results were expressed as Fe^2+ equivalents (Fe^2+ µmol).

[2] = test system: HEK 293 (human embryonic kidney cells); experiment: Antiproliferative/cytotoxic activity in vitro on non-tumour cells, MTT, 72 h; type: cell-based; conditions: for IC50: Homo sapiens, HEK293, non-tumour cell line, concentration that causes 50% growth inhibition, 72 h, MTT
Method: as §1

[3] = DPPH free radical scavenging (reducing activity of the stable radical DPPH); type: biochemical; conditions: DPPH 50 µM in absolute ethanol; – = did not show any DPPH activity
Method: The reducing activity of investigated systems was achieved by the DPPH method according to previously described procedures with modifications to assure the use in a 96-well microplate. Briefly, equal volumes of various concentrations of tested molecules (dissolved in DMSO) were added to the solution of DPPH (final concentration 50 µM in absolute ethanol). Ethanol and DMSO were used as control solutions in line with earlier reports.[27]

H 460 (lung carcinoma) = experiment: Antiproliferative activity in vitro, MTT, 72 h; type: cell-based, human; conditions: Homo sapiens, NCI-H460, 72 h, concentration that causes 50% growth inhibition; 72 h, MTT
Method: as §1

Row | Structure (SMILES) | translocation of Nrf2 to the nucleus (nuclear expression of Nrf2) (Nrf2) | IC50 (HCT116 (colon carcinoma)) [µM] | IC50 (MCF-7 (breast carcinoma)) [µM] | FRAP [1] | cytotoxicity towards non-tumour cell line compared with tumour cells ([2]; HEK 293 versus tumour cancer cells) | IC50 [2] [µM] | IC50 [3] | IC50 (H 460 (lung carcinoma)) [µM]
1 | CC(C)Cn1c(NC(=O)c2ccccc2)nc2ccc(C#N)cc21 [Compound 40, N-(6-Cyano-1-isobutyl-1H-benzo[d]imidazol-2-yl)benzamide] | did not promote the translocation of Nrf2 to the nucleus | ~0.6 | 2.2 ± 1.9 | 203.50 ± 10.53 mmolFe^2+/mmolC | significantly less cytotoxic towards non-tumour cell line HEK 293 | 9.1 ± 1 | 11500 ± 1500 µM | –
2 | COc1ccc(C(=O)Nc2nc3ccc(C#N)cc3n2C)c(OC)c1 [Compound 34, N-(6-Cyano-1-methyl-1H-benzo[d]imidazol-2-yl)-2,4-dimethoxybenzamide] | did not promote the translocation of Nrf2 to the nucleus | 47.6 ± 30 | 46.9 ± 35.4 | 618.10 mmolFe^2+/mmolC and 618.10 ± 66.10 mmolFe^2+/mmolC | – | 93.3 ± 2.3 | ~5680 µM and 5680 µM | 21.9 ± 2.9
3 | OO [hydrogen peroxide, reference compound] | significantly higher in the nucleus | – | – | – | – | – | – | –
